# Test results reported in US6566047B1, “Method for identifying neurite-growth promoting agents” (The Regents of the University of Colorado, priority 1998, dated 2003).
# Entries after “also recorded” stand apart in the source; their conditions may differ.
# Experiments:
# growth cone PLA2 = test: PLA2 assay in growth cone particles (GCPs); assay type: biochemical, rat; conditions: GCPs
# Description: Growth Cone Particle (GCP) Isolation. GCPs were prepared as described by Pfenninger et al. (1983) and modified by Lohse et al., Dev. Brain Res., 96:38-96 (1996). Briefly, 18-day fetal brains were homogenized in approximately 8 volumes of 0.32 M sucrose containing 1 mM MgCl2, 2 mM TES buffer, pH 7.3, and 3 μM aprotinin. A low-speed supernatant (1,660 g×15 min) was loaded onto a discontinuous sucrose density gradient With steps of 0.83 M and 2.66 M sucrose containing MgCl2 and TES. The gradients were spun to equilibrium at 242,000 g for 40 min in a vertical rotor (Vti50, Beckman). The GCP fraction at the 0.32/0.83 M sucrose interface was collected and used for the experiments described below.
# All assays were run in triplicate.
# MAT-Lu cells = test: Pseudopod morphometry (pseudopod length assay), MAT-Lu cells; assay type: cell-based, rat; conditions: typically 15 min exposure
# Description: Pseudopod Morphometry. To study the effects of various agents on pseudopods on a short-term basis, we measured pseudopod lengths. Cells plated in 35-mm diameter dishes at low density (1×10^4 per dish) were incubated overnight, tie medium was changed, and the experiments were run four hours later. First, cultures were shifted to serum-free medium, which was replaced one hour later by serum-free medium with or without the various agents (thrombin, AA or HETEs). Care was taken to avoid heat and light inactivation of the eicosanoids. Culture dishes were placed on a Zeiss inverted microscope equipped with a heated stage and viewed with a 16×phase contrast objective lens. Randomly selected fields of the cultures, containing generally about 20 cells each, were recorded, digitized and stored in the computer at the onset of the experiment and at different times thereafter.
# In some cases, individual cells were monitored over different periods of time immediately after introduction of the reagent, either by mixing it into the medium or by applying it locally to one end of the cell. Local application was done with a “puffer” system that expels microliter amounts of the desired solution from a micromanipulator-controlled micropipette tip. Cell morphology was recorded, and the captured images were analyzed with a Power Macintosh computer using NIH Image. Cell process length was measured from the center of the nucleus to the end of the process. Characterization of the frequencies of pseudopod lengths, at a fixed time for each of a sequence of concentrations of reagent, utilized a gamma regression model with an inverse quadratic linear predictor (McCullagh and Nelder, Generalized Linear Models 2d ed., pp. 291-292 (Chapman & Hall, 1989), separately fit to each concentration data set. Although no formal goodness-of-fit tests were carried out, in virtually every case there was good visual representation of the pattern of response (see FIG. 14). Most data, however, are shown as whisker-box plots, where the center point represents the 50%, the ends of the box the […] and 75%, and the “whiskers” the 5% and 95% quantiles (e.g., FIG. 11). Statistical comparisons of pseudopod lengths for different treatments were done by standard non-parametric techniques (Wilcoxon Rank Sum or Kruskal-Wallis Tests), as judged appropriate. Polynomial curve fittings were done by standard least-squares techniques. Statistical analyses and graphing were done with the use of SAS procedures: Reg, Phreg, Nparlway and Plot (SAS institute Inc., Cary, N.C.).
Compound,activation of growth cone cPLA2/PLA2 (growth cone PLA2),effect of agent alone on pseudopod length (MAT-Lu cells),"net activity (pmol/min/mg protein) (growth cone PLA2; Table 3c, substrate PI, BDNF 100, IGF-1 0.75, insulin 1, thrombin 200 nM, control 159 ± 6.2)"
NGF: growth factor whose receptors are present on GCPs,only weakly or not at all,–,–
"CCCCC[C@H](O)/C=C/C=C\C/C=C\C/C=C\CCCC(=O)O [15(S)-HETE, 15(S)-hydroxyeicosatetraenoic acid]",–,about as active as 12(S)-HETE; also recorded: reduced pseudopod lengths of MAT-Lu cells in a biphasic manner,–
insulin: insulin from Collaborative Biomedical Products,failed to stimulate PLA2 significantly,–,158 ± 8.4
CCCCC/C=C\C/C=C\C/C=C\C=C\[C@@H](O)CCCC(=O)O [5(S)-HETE],–,essentially inactive; also recorded: had no effect on pseudopod length,–
